pIC50: −log10 of the molar value. Active and inactive are the calls of the source.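 How the source made its calls: active means IC50 at or below 10 micromolar; inactive means IC50 above 10 micromolar.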
Each molecule was assayed against 5-hydroxytryptamine receptor 1A (Homo sapiens) (UniProt P08908) (assay: IC50 of serotonin HTR1A blockade – cell-based, CHO, Ga15 NFAT-bla reporter, dose response (AID 755)). Settings: CHO 5-HT1A Ga15 NFAT-BLA reporter, FRET antagonist.
5-hydroxytryptamine receptor 1A (Homo sapiens), sequence (P08908 whole entry, looked up): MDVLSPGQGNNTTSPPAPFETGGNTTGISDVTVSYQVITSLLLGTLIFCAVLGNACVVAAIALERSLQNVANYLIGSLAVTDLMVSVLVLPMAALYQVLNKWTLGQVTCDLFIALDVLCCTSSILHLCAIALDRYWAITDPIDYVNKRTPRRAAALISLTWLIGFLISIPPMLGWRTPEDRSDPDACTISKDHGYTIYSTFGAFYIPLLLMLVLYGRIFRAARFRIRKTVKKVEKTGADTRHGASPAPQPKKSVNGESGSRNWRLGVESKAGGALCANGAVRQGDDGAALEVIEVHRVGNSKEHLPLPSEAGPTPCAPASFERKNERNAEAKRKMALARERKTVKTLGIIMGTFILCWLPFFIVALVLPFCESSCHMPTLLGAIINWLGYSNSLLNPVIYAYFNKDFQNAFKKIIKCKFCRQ

| Compound | pIC50 | IC50 |
| --- | --- | --- |
| CC(=O)Oc1ccc(N2C(=O)C3C(C2=O)C2(C)C=CC3(C)O2)cc1 (stereo not given) | 5.13 | – |
| COc1ccc(N2C(=O)CC(NCc3ccncc3)C2=O)cc1 (stereo not given) | – | > 40 µM (inactive) |
| CSc1ccccc1N=CC1=C(O)CC(C)(C)CC1=O | 5.73 | – |
| COc1cc2c(cc1OC)C1=C(C#N)CC/C(=N\S(=O)(=O)c3ccccc3)N1CC2 | – | > 40 µM (inactive) |
| O=C1C2C3C=CC(CO)(O3)C2C(=O)N1c1ccc(-c2ccccc2)cc1 (stereo not given) | – | inactive |
